ChEMBL document CHEMBL1142347, “Synthesis and antibiotic activity of a small molecules library of 1,2,3-triazole derivatives” (2008)
Active and inactive are the calls of the source. The calls are words filed in the database; no cut-off is given here.

Tests used:
Type in all cases: functional
Staphylococcus aureus [1] = experiment: Growth inhibition of Staphylococcus aureus 1199B expressing NorA at 0.1 mg/ml after 24 hrs in presence of 4 mg/L ciprofloxacin
Staphylococcus aureus [2] = experiment: Growth inhibition of Staphylococcus aureus RN4220 expressing MsrA at 0.1 mg/ml after 24 hrs; conditions: for inhibition at 100 µg/mL: RN4220, 24 h
Staphylococcus aureus [3] = experiment: Growth inhibition of Staphylococcus aureus 1199B expressing NorA at 0.1 mg/ml after 24 hrs
Staphylococcus aureus [4] = experiment: Growth inhibition of Staphylococcus aureus RN4220 expressing MsrA at 0.1 mg/ml after 24 hrs in presence of 16 mg/L erythromycin
Staphylococcus aureus [5] = experiment: Growth inhibition of Staphylococcus aureus ATCC 25923 at 0.1 mg/ml after 24 hrs; conditions: for inhibition at 100 µg/mL: ATCC 25923, 24 h

| Compound | Activity (Staphylococcus aureus [1]) | Activity (Staphylococcus aureus [2]) | Activity (Staphylococcus aureus [3]) | Activity (Staphylococcus aureus [4]) | Activity (Staphylococcus aureus [5]) | Inhibition (Staphylococcus aureus [1]) [%] | inhibition at 100 µg/mL (Staphylococcus aureus [2]) [%] | inhibition at 100 µg/mL (Staphylococcus aureus [3]) [%] | Inhibition (Staphylococcus aureus [4]) [%] | inhibition at 100 µg/mL (Staphylococcus aureus [5]) [%] |
| --- | --- | --- | --- | --- | --- | --- | --- | --- | --- | --- |
| CCOC(OCC)c1cn(-c2ccccc2)nn1 | inactive | inactive | inactive | inactive | inactive |  |  |  |  |  |
| CCOC(OCC)c1cn(-c2ccc(OC)cc2)nn1 |  |  |  |  | inactive | 71 | 9 | 11 | 25 |  |
| O=C(O)c1cn(-c2cccnc2)nn1 |  |  |  |  |  | 24 | 52.6 | 23 | 78 | 14 |
| O=C(O)c1cn(Cc2ccccc2)nn1 |  |  |  |  | inactive | 9 | 31 | 8 | 22 |  |
| CCCCCCCCCCCCn1cc(CN2C(=O)c3ccccc3C2=O)nn1 |  |  |  |  |  | 45 | 43 | 40 | 65 | 20 |
| O=C1c2ccccc2C(=O)N1Cc1cn(Cc2ccccc2)nn1 |  |  |  |  | inactive | 36 | 30 | 57 | 44 |  |
| CCOC(OCC)c1cn(Cc2ccccc2)nn1 |  |  |  |  |  | 8 | 19 | 6 | 28 | 32 |
| O=[N+]([O-])c1ccc(-n2cc(COc3ccccc3)nn2)cc1 |  |  |  |  |  | 24 | 34 | 18 | 56 | 27 |
| COc1ccc(-n2cc(CN3C(=O)c4ccccc4C3=O)nn2)cc1 |  |  |  |  |  | 18 | 24.1 | 15 | 48 | 24 |
| CCOC(OCC)c1cn(-c2cccnc2)nn1 | inactive | inactive |  | inactive | inactive |  |  | 6.3 |  |  |
| COC(=O)c1cn(Cc2ccccc2)nn1 |  |  |  |  |  | 18 | 15 | 15 | 33 | 25 |
| O=C(O)c1cn(-c2ccccc2)nn1 |  |  |  |  | inactive | 15 | 54 | 18 | 74.9 |  |
| C=CCn1cc(C(OCC)OCC)nn1 | inactive |  | inactive |  |  |  | 6 |  | 40 | 17 |
| O=C1c2ccccc2C(=O)N1Cc1cn(-c2cccnc2)nn1 |  |  |  |  |  | 26.6 | 46 | 22 | 71 | 24 |
| COC(=O)c1cn(-c2cccnc2)nn1 | inactive |  | inactive |  |  |  | 11 |  | 78.3 | 16 |
| c1ccc(OCc2cn(-c3cccnc3)nn2)cc1 |  |  |  |  |  | 56 | 30 | 22 | 58 | 22 |
| COc1ccc(-n2cc(COc3ccccc3)nn2)cc1 |  |  |  |  |  | 16 | 21 | 11 | 39 | 10 |
| OCc1cn(Cc2ccccc2)nn1 | inactive | inactive |  | inactive |  |  |  | 6 |  | 6.1 |
| c1ccc(Cn2cc(COc3ccccc3)nn2)cc1 |  |  |  |  |  | 20 | 32.7 | 21 | 43 | 12 |
| C=CCn1cc(C(=O)O)nn1 |  | inactive | inactive | inactive | inactive | 6 |  |  |  |  |
| C=CCn1cc(COc2ccccc2)nn1 |  |  |  |  |  | 20 | 32 | 15 | 38 | 16 |
| O=C1c2ccccc2C(=O)N1Cc1cn(-c2ccccc2)nn1 |  |  |  |  | inactive | 17 | 24 | 17 | 41 |  |
| COc1ccc(-n2cc(C(=O)O)nn2)cc1 |  |  |  |  | inactive | 24 | 38 | 21 | 45.8 |  |
| CCCCCCCCn1cc(CN2C(=O)c3ccccc3C2=O)nn1 |  |  |  |  | inactive | 25 | 40 | 27.4 | 24 |  |
| C=CCn1cc(CN2C(=O)c3ccccc3C2=O)nn1 |  |  |  |  | inactive | 23 | 33 | 18 | 36 |  |
| C=CCn1cc(C(=O)OC)nn1 |  |  |  |  |  | 16 | 44 | 16 | 71 | 21 |
| c1ccc(OCc2cn(-c3ccccc3)nn2)cc1 |  |  |  |  |  | 26 | 11 | 11 | 41 | 31 |
| O=C1c2ccccc2C(=O)N1Cc1cn(-c2ccc([N+](=O)[O-])cc2)nn1 |  |  |  |  |  | 38 | 48.1 | 35 | 72 | 22 |
